These results are taken from ChEMBL document CHEMBL5226286, “The application of isatin-based multicomponent-reactions in the quest for new bioactive and druglike molecules” (Eur J Med Chem, 2021).

Test [1] relates to Tobacco mosaic virus. As to the kind of experiment: Antiviral activity against Tobacco mosaic virus assessed as inactivation effect relative to control. In kind it is functional.
The test system of test [2] is Tobacco mosaic virus. As to the kind of experiment: Antiviral activity against Tobacco mosaic virus assessed as protection effect relative to control. The class given is functional.
Test [3] deals with Tobacco mosaic virus. As to the kind of experiment: Antiviral activity against Tobacco mosaic virus assessed as curative effect relative to control. In kind it is functional.
The next test concerns PC-3. As to the kind of experiment: Antiproliferative activity against human PC-3 cells. The class given is functional, cell-based.
The subject of another test is LNCaP. As to the kind of experiment: Antiproliferative activity against human LNCaP cells. In kind it is functional, cell-based.
Test [4] relates to Staphylococcus aureus. As to the kind of experiment: Antibacterial activity against Staphylococcus aureus NCIM5021 by microdilution broth method. In kind it is functional. On the technique in general: Broth dilution looks for growth in wells or tubes with falling amounts of substance.
A further test relates to Pseudomonas aeruginosa. As to the kind of experiment: Antibacterial activity against Pseudomonas aeruginosa NCIM 5029 by microdilution broth method. In kind it is functional.
The test system of a further test is Salmonella sp. As to the kind of experiment: Antibacterial activity against Salmonella sp. NCIM 2501 by microdilution broth method. In kind it is functional.
A further test relates to Proteus vulgaris. As to the kind of experiment: Antibacterial activity against Proteus vulgaris NCIM 2813 by microdilution broth method. In kind it is functional.
For test [5], the system named is Escherichia coli. As to the kind of experiment: Antibacterial activity against Escherichia coli NCIM 2931 by microdilution broth method. The class given is functional.
Test [6] relates to MDA-MB-231. As to the kind of experiment: Antiproliferative activity against human MDA-MB-231 cells by MTT reduction assay. In kind it is functional, cell-based. In general terms: Tetrazolium assays rely on reduction of a dye to a coloured formazan, in cell work by metabolically active cells.
The test system of the next test is T47D. As to the kind of experiment: Antiproliferative activity against human T47D cells by MTT reduction assay. The class given is functional, cell-based.
A further test deals with MDA-MB-435. As to the kind of experiment: Antiproliferative activity against human MDA-MB-435 cells. The class given is functional, cell-based.
Test [7] concerns HeLa. As to the kind of experiment: Growth inhibition of human HeLa cells at 20 micromol relative to control. To be noted: dose 20 µmol. The class given is functional.
In another test the test system is HepG2. As to the kind of experiment: Growth inhibition of human HepG2 cells at 20 micromol relative to control. In kind it is functional. To be noted: dose 20 µmol.
In test [8] the test system is MDA-MB-231. As to the kind of experiment: Growth inhibition of human MDA-MB-231 cells at 20 micromol relative to control. In kind it is functional. The following applies: dose 20 µmol.
For the next test, the system named is Candida albicans. As to the kind of experiment: Antifungal activity against Candida albicans MTCC 227. The class given is functional.
A further test deals with Saccharomyces cerevisiae. As to the kind of experiment: Antifungal activity against Saccharomyces cerevisiae MTCC 170. In kind it is functional.
Test [9] deals with Staphylococcus aureus. As to the kind of experiment: Antibacterial activity against Staphylococcus aureus by agar well diffusion method. The class given is functional. (In general: In agar diffusion tests the substance spreads into inoculated agar from a disc or well.)
The subject of test [10] is Escherichia coli. As to the kind of experiment: Antibacterial activity against Escherichia coli by agar well diffusion method. The class given is functional.
Test [11] has as its system Bacillus subtilis. As to the kind of experiment: Antibacterial activity against Bacillus subtilis by agar well diffusion method. In kind it is functional.
Test [12] relates to Staphylococcus aureus. As to the kind of experiment: microbe, parasite or virus in culture.
Test [13] has as its system Bacillus subtilis. As to the kind of experiment: Antibacterial activity against Bacillus subtilis. The class given is functional.
Test [14] deals with Escherichia coli. As to the kind of experiment: microbe, parasite or virus in culture.
A further test relates to MCF7. As to the kind of experiment: Antiproliferative activity against human MCF7 cells by MTT reduction assay. In kind it is functional, cell-based.
A further test relates to A549. As to the kind of experiment: Anticancer activity against human A549 cells by MTT assay. In kind it is functional, cell-based.
A further test relates to K562. As to the kind of experiment: Anticancer activity against human K562 cells by MTT assay. The class given is functional, cell-based.
A further test relates to Proteus mirabilis. As to the kind of experiment: microbe, parasite or virus in culture. To be noted: PTCC 1776.
Test [15] relates to Staphylococcus epidermidis. As to the kind of experiment: microbe, parasite or virus in culture. The following applies: PTCC 1435.
Description: Antimicrobial activity against Staphylococcus epidermidis PTCC 1435 by broth disk diffusion microdilution method
Test [16] concerns HeLa. As to the kind of experiment: Cytotoxicity against human HeLa cells. In kind it is functional, cell-based.

In brackets after ≈: the same amount, converted by molar mass.

Description for Proteus mirabilis: Antimicrobial activity against Proteus mirabilis PTCC 1776 by broth disk diffusion microdilution method

Turning to `CN1C[C@@H](c2ccccc2)[C@@]2(Oc3cc(O)ccc3C2=O)[C@@]12C(=O)N(Cc1ccccc1)c1ccccc12`, the Activity in the test with Tobacco mosaic virus [1] was found to be 57.1%; in the test with Tobacco mosaic virus [2], 50.9%; in the test on Tobacco mosaic virus [3], 52.3%.
As usually defined, the IC50 is the concentration at which inhibition is half-maximal. Read a high IC50 as weaker potency. Regarding `O=C1c2ccccc2C2Oc3c(c(=O)oc4ccccc34)C3(C(=O)N(c4ccc(Cl)cc4)c4ccccc43)C12` (stereo not drawn), the 50% inhibitory concentration (IC50) is 0.08 µM in the test with PC-3 and 1.3 µM in the test on LNCaP.
As to `O=C1c2ccccc2C2Oc3c(c(=O)oc4ccccc34)C3(C(=O)Nc4ccc(Br)cc43)C12` (stereo not drawn), the IC50 with PC-3 was 0.03 µM; with LNCaP it was 1.9 µM.
Consider `O=C1Nc2ccccc2[C@@]1(O)[C@@]1(OCc2ccc(Br)cc2)C(=O)Nc2ccccc21`, for which the MIC against Staphylococcus aureus [4] stood at 0.067 µg/mL (≈ 0.144 µM); in the test with Pseudomonas aeruginosa, 0.067 µg/mL (≈ 0.144 µM); against Salmonella sp., 0.034 µg/mL (≈ 0.0731 µM); with Proteus vulgaris, 0.067 µg/mL (≈ 0.144 µM); in the test on Escherichia coli [5], 0.034 µg/mL (≈ 0.0731 µM).
As to `CC/C(=C(\c1ccccc1)c1ccc(OCCN(C)C)cc1)c1ccccc1` [TAMOXIFEN], the IC50 with MDA-MB-231 [6] is 14.5 µM; in the test on T47D, 14.2 µM; in the test on MDA-MB-435 it was 0.1 µM.
For the compound `CNCC(=O)N[C@@H](CO)C(=O)N[C@H]1[C@H](O)[C@@H](O)[C@H](n2ccc(N)nc2=O)O[C@@H]1C(N)=O` [NINGNANMYCIN], the Activity in the test on Tobacco mosaic virus [1] was found to be 58.8%; in the test on Tobacco mosaic virus [2], 57.1%; with Tobacco mosaic virus [3], 55.9%.
In the case of `Cc1ccc(/C=C2/CN(C)CC3=C2OC(N)=C(C#N)C32C(=O)Nc3ccccc32)cc1C` (stereo not drawn), the “growth inhibition (GI)” value with HeLa [7] amounted to 87.1%; in the test with HepG2, 70.2%; in the test on MDA-MB-231 [8] it was 64.9%.
Take `COc1ccc(-n2cc(CN3C(=O)C4(C(C#N)=C(N)OC5=C4C(=O)CC(C)(C)C5)c4ccccc43)nn2)cc1` (stereo not drawn): the MIC in the test with Candida albicans was 128 µg/mL (≈ 245 µM); against Saccharomyces cerevisiae, 64 µg/mL (≈ 122 µM).
Regarding `CC1(C)CC(=O)C2=C(C1)N(c1ccc(Cl)cc1)C(=O)C21C2=C(Nc3ccccc31)c1ccccc1C2=O` (stereo not drawn), the MIC in the test on Staphylococcus aureus [9] was 16 µg/mL (≈ 31.6 µM); in the test on Escherichia coli [10], 64 µg/mL (≈ 126 µM); against Bacillus subtilis [11] it was 8 µg/mL (≈ 15.8 µM).
As to `Cc1nn(-c2ccccc2)c2c1C1(C(=O)Nc3ccc(Br)cc31)C1=C(CCCC1=O)O2` (stereo not drawn), the MIC amounted to 128 µg/mL (≈ 269 µM) in the test on Staphylococcus aureus [12], 12 µg/mL (≈ 25.2 µM) against Bacillus subtilis [13] and 256 µg/mL (≈ 537 µM) in the test with Escherichia coli [14].
With `O=C(c1ccc(OCCN2CCCC2)cc1)[C@H]1[C@H](c2ccccc2)C2CS[C@H](c3ccccc3)N2C12C(=O)Nc1ccc(F)cc12` (stereo partly drawn), the values for the IC50 in the test on MDA-MB-231 [6], with T47D and in the test on MCF7 were 5.8 µM, 6.2 µM and 5.4 µM, respectively.
As to `COc1ccc([C@@H]2CN(C)[C@]3(C(=O)N(C)c4ccccc43)[C@]23Oc2cc(O)ccc2C3=O)cc1`, the Activity was determined as 55.1% in the test on Tobacco mosaic virus [1], 51.2% in the test on Tobacco mosaic virus [2] and 47.3% in the test on Tobacco mosaic virus [3].
As to `CC(C)=CC(=O)[C@H]1[C@H](c2ccc(Br)cc2)CN(C)[C@]12C(=O)Nc1ccc(Br)cc12`, the half-inhibitory concentration (IC50) worked out at 22.9 µM in the test on A549 and 5.7 µM in the test on K562.
With `CC1(C)CC(=O)C(=C2SC(N)=C(C#N)C3(S2)C(=O)N(Cc2ccc(Cl)cc2Cl)c2ccccc23)C(=O)C1` (stereo not drawn), the MIC in the test on Proteus mirabilis worked out at 16 µg/mL (≈ 28 µM); in test [15], 8 µg/mL (≈ 14 µM).
On to `O=C(c1ccc(OCCN2CCC2)cc1)[C@H]1[C@H](c2ccccc2)C2CS[C@H](c3ccccc3)N2C12C(=O)Nc1ccc(Cl)cc12` (stereo partly drawn), for which the IC50 in the test with MDA-MB-231 [6] turned out to be 4.2 µM; in the test with T47D, 4.7 µM; in the test with MCF7 it was 3.7 µM.
`CCN(CC)CCNC(=O)c1c(C)[nH]c(/C=C2\C(=O)Nc3ccc(F)cc32)c1C` [SUNITINIB] came in with a half-inhibitory concentration (IC50) in the test on HeLa [16] of more than 30 µM.
